Results on four compounds are retold here after patent publication US20230398130A1, “METHODS AND COMPOSITIONS FOR DIFFERENTIATING STEM CELLS” (Massachusetts Institute of Technology, priority 2020, published 2023).

Structures are written as SMILES.

The test system of test [1] is ISC-enriched organoids. The experiment in a line: Primary screen, 384-well 2.5-D organoid differentiation (ENR+CD, 6 days): basal lysozyme secretion (LYZ.NS). The test is classed as cell-based, murine. Conditions: for Dose.FC.LYZ.NS: primary screen, FC vs plate median; for Z.LYZ.NS: standard z score of FC. The source says:
(§1) High-throughput screening.

Test [2] has as its system ISC-enriched organoids. As to the kind of experiment: Primary screen, 384-well 2.5-D organoid differentiation (ENR+CD, 6 days): carbachol-induced lysozyme secretion (LYZ.S). The format is cell-based, murine. Conditions: primary screen, FC vs plate median.
Description: as §1

The test system of test [3] is ISC-enriched organoids. The experiment in a line: Primary screen, 384-well 2.5-D organoid differentiation (ENR+CD, 6 days, Target Selective Inhibitor Library, vs whole-plate median): ATP (CellTiter-Glo 3D, CTG). The note with it: for Dose.FC.CTG: primary screen, FC vs plate median; for Z.CTG: standard z score of FC. (In general: In ATP-based viability assays light output follows the ATP content of the culture.)

For `Cc1cnc(-c2cc(N3CCN(C(=O)CCS(C)(=O)=O)CC3)ncc2Cl)c(C)c1` [PF-5274857], the Dose.FC.LYZ.NS in the test with ISC-enriched organoids [1] (Dose 0.08 uM) was 0.078 log 2 fold change; with ISC-enriched organoids [1] (Dose 0.40 uM) it was −0.029 log 2 fold change; in the test with ISC-enriched organoids [1] (Dose 2.00 uM), 0.011 log 2 fold change; in the test with ISC-enriched organoids [1] (Dose 10.00 uM), 0.074 log 2 fold change. Besides, the Z.LYZ.NS was 0.683 in the test with ISC-enriched organoids [1] (Dose 0.08 uM), −0.256 with ISC-enriched organoids [1] (Dose 0.40 uM), 0.094 in the test with ISC-enriched organoids [1] (Dose 2.00 uM) and 0.642 in the test with ISC-enriched organoids [1] (Dose 10.00 uM). For the same compound, the Dose.FC.LYZ.S with ISC-enriched organoids [2] (Dose 0.08 uM) is recorded as 0.187 log 2 fold change; in the test with ISC-enriched organoids [2] (Dose 0.40 uM) it was −0.034 log 2 fold change; in the test with ISC-enriched organoids [2] (Dose 2.00 uM) it was 0.042 log 2 fold change; in the test on ISC-enriched organoids [2] (Dose 10.00 uM) it was 0.076 log 2 fold change. In addition, the Dose.FC.CTG in the test with ISC-enriched organoids [3] (Dose 0.08 uM) was −0.101 log 2 fold change; in the test with ISC-enriched organoids [3] (Dose 0.40 uM), −0.040 log 2 fold change; in the test with ISC-enriched organoids [3] (Dose 2.00 uM), 0.055 log 2 fold change; in the test with ISC-enriched organoids [3] (Dose 10.00 uM), −0.076 log 2 fold change. The Z.CTG was −0.242 with ISC-enriched organoids [3] (Dose 0.08 uM), −0.096 with ISC-enriched organoids [3] (Dose 0.40 uM), 0.131 with ISC-enriched organoids [3] (Dose 2.00 uM) and −0.183 in the test on ISC-enriched organoids [3] (Dose 10.00 uM).
Consider `COc1ccccc1S(=O)(=O)Nc1ccc2c(c1)CN(C)C(=O)N2` [PFI-1 (PF-6405761)], for which the Dose.FC.LYZ.NS is recorded as 0.062 log 2 fold change in the test on ISC-enriched organoids [1] (Dose 0.08 uM), 0.079 log 2 fold change in the test with ISC-enriched organoids [1] (Dose 0.40 uM), −0.098 log 2 fold change with ISC-enriched organoids [1] (Dose 2.00 uM) and −0.066 log 2 fold change with ISC-enriched organoids [1] (Dose 10.00 uM). Moreover, the Z.LYZ.NS is 0.538 in the test with ISC-enriched organoids [1] (Dose 0.08 uM), 0.691 in the test with ISC-enriched organoids [1] (Dose 0.40 uM), −0.852 in the test with ISC-enriched organoids [1] (Dose 2.00 uM) and −0.573 in the test with ISC-enriched organoids [1] (Dose 10.00 uM). Further, the Dose.FC.LYZ.S in the test with ISC-enriched organoids [2] (Dose 0.08 uM) is reported as 0.061 log 2 fold change; in the test with ISC-enriched organoids [2] (Dose 0.40 uM) it was 0.104 log 2 fold change; in the test on ISC-enriched organoids [2] (Dose 2.00 uM) it was −0.117 log 2 fold change; with ISC-enriched organoids [2] (Dose 10.00 uM) it was −0.194 log 2 fold change. Further, the Dose.FC.CTG is recorded as 0.142 log 2 fold change in the test on ISC-enriched organoids [3] (Dose 0.08 uM), 0.390 log 2 fold change in the test with ISC-enriched organoids [3] (Dose 0.40 uM), 0.322 log 2 fold change in the test with ISC-enriched organoids [3] (Dose 2.00 uM) and −0.389 log 2 fold change in the test on ISC-enriched organoids [3] (Dose 10.00 uM). Besides, the Z.CTG with ISC-enriched organoids [3] (Dose 0.08 uM) is on record as 0.340; with ISC-enriched organoids [3] (Dose 0.40 uM), 0.931; with ISC-enriched organoids [3] (Dose 2.00 uM), 0.770; in the test on ISC-enriched organoids [3] (Dose 10.00 uM), −0.929.
On to `COc1cc(OC)c(NC(=O)Nc2cc(C)on2)cc1Cl` [PNU-120596], for which the Dose.FC.LYZ.NS is given as 0.108 log 2 fold change in the test on ISC-enriched organoids [1] (Dose 0.08 uM), −0.011 log 2 fold change with ISC-enriched organoids [1] (Dose 0.40 uM), 0.068 log 2 fold change in the test with ISC-enriched organoids [1] (Dose 2.00 uM) and −0.060 log 2 fold change with ISC-enriched organoids [1] (Dose 10.00 uM). Moreover, the Z.LYZ.NS with ISC-enriched organoids [1] (Dose 0.08 uM) was 0.944; in the test with ISC-enriched organoids [1] (Dose 0.40 uM) it was −0.098; in the test on ISC-enriched organoids [1] (Dose 2.00 uM), 0.594; in the test on ISC-enriched organoids [1] (Dose 10.00 uM), −0.525. Also, the Dose.FC.LYZ.S with ISC-enriched organoids [2] (Dose 0.08 uM) is listed as 0.058 log 2 fold change; with ISC-enriched organoids [2] (Dose 0.40 uM) it was 0.081 log 2 fold change; in the test on ISC-enriched organoids [2] (Dose 2.00 uM), 0.065 log 2 fold change; with ISC-enriched organoids [2] (Dose 10.00 uM) it was −0.049 log 2 fold change. The Dose.FC.CTG is given as −0.079 log 2 fold change in the test with ISC-enriched organoids [3] (Dose 0.08 uM), 0.085 log 2 fold change in the test with ISC-enriched organoids [3] (Dose 0.40 uM), 0.114 log 2 fold change in the test on ISC-enriched organoids [3] (Dose 2.00 uM) and 0.138 log 2 fold change in the test on ISC-enriched organoids [3] (Dose 10.00 uM). The Z.CTG in the test on ISC-enriched organoids [3] (Dose 0.08 uM) is given as −0.188; in the test on ISC-enriched organoids [3] (Dose 0.40 uM), 0.204; in the test on ISC-enriched organoids [3] (Dose 2.00 uM), 0.271; with ISC-enriched organoids [3] (Dose 10.00 uM) it was 0.330.
Turning to `CC(C)(C)n1nc(-c2ccc(Cl)cc2)c2c(N)ncnc21` [PP2], the Dose.FC.LYZ.NS is 0.033 log 2 fold change in the test on ISC-enriched organoids [1] (Dose 0.08 uM), 0.012 log 2 fold change in the test on ISC-enriched organoids [1] (Dose 0.40 uM), 0.270 log 2 fold change in the test with ISC-enriched organoids [1] (Dose 2.00 uM) and −0.027 log 2 fold change with ISC-enriched organoids [1] (Dose 10.00 uM). Also, the Z.LYZ.NS with ISC-enriched organoids [1] (Dose 0.08 uM) is 0.285; in the test on ISC-enriched organoids [1] (Dose 0.40 uM), 0.104; in the test on ISC-enriched organoids [1] (Dose 2.00 uM), 2.354; with ISC-enriched organoids [1] (Dose 10.00 uM) it was −0.235. Further, the Dose.FC.LYZ.S with ISC-enriched organoids [2] (Dose 0.08 uM) is recorded as 0.058 log 2 fold change; with ISC-enriched organoids [2] (Dose 0.40 uM), 0.145 log 2 fold change; in the test with ISC-enriched organoids [2] (Dose 2.00 uM), 0.113 log 2 fold change; in the test on ISC-enriched organoids [2] (Dose 10.00 uM) it was 0.027 log 2 fold change. Besides, the Dose.FC.CTG in the test on ISC-enriched organoids [3] (Dose 0.08 uM) is given as −0.693 log 2 fold change; in the test on ISC-enriched organoids [3] (Dose 0.40 uM), 0.130 log 2 fold change; in the test with ISC-enriched organoids [3] (Dose 2.00 uM) it was −0.382 log 2 fold change; in the test on ISC-enriched organoids [3] (Dose 10.00 uM), −0.246 log 2 fold change. For the same compound, the Z.CTG in the test on ISC-enriched organoids [3] (Dose 0.08 uM) is listed as −1.655; with ISC-enriched organoids [3] (Dose 0.40 uM) it was 0.312; in the test with ISC-enriched organoids [3] (Dose 2.00 uM), −0.913; in the test on ISC-enriched organoids [3] (Dose 10.00 uM), −0.587.
